{"source": "patent US6130342A", "about": "“CYP2D fluorescent assay reagents” (Gentest Corporation, priority 1999, dated 2000)", "molecules": {"B1": {"name": "CYP2D6 (Homo sapiens) (protein)", "chain": "MGLEALVPLAVIVAIFLLLVDLMHRRQRWAARYPPGPLPLPGLGNLLHVDFQNTPYCFDQLRRRFGDVFSLQLAWTPVVVLNGLAAVREALVTHGEDTADRPPVPITQILGFGPRSQGVFLARYGPAWREQRRFSVSTLRNLGLGKKSLEQWVTEEAACLCAAFANHSGRPFRPNGLLDKAVSNVIASLTCGRRFEYDDPRFLRLLDLAQEGLKEESGFLREVLNAVPVLLHIPALAGKVLRFQKAFLTQLDELLTEHRMTWDPAQPPRDLTEAFLAEMEKAKGNPESSFNDENLRIVVADLFSAGMVTTSTTLAWGLLLMILHPDVQRRVQQEIDDVIGQVRRPEMGDQAHMPYTTAVIHEVQRFGDIVPLGVTHMTSRDIEVQGFRIPKGTTLITNLSSVLKDEAVWEKPFRFHPEHFLDAQGHFVKPEAFLPFSAGRRACLGEPLARMELFLFFTSLLQHFSFSVPTGQPRPSHHGVFAFLVSPSPYELCAVPR", "notes": "purchased GENTEST Corporation P217; host or cells: baculovirus/insect cell (SUPERSOMES)"}}, "key": {"CYP2D6 [1]": {"target": "T1, CYP2D6 (Homo sapiens, UniProt P10635)", "assay": "biochemical", "quoted_text": "The substrates, compounds of Formula I, were prepared in pH 7.4 potassium phosphate buffer or acetonitrile. […] The 12 wells in a row were used for one test. Wells 1 to 8 contained serial 1:3 dilutions of the inhibitors. Wells 9 and 10 contained no inhibitor and rows 11 and 12 were blanks for background fluorescence (stop solution added before the enzyme). After substrate and inhibitor addition, the plates were prewarmed to 37° C. Incubations were initiated by the addition of prewarmed enzyme and cofactors. […] Data was exported and analyzed using an Excel spreadsheet."}, "[2]": {"system": "other human cytochromes P450", "conditions": "Crespi et al. 1997; cited from earlier work"}, "CYP2D6 [3]": {"system": "CYP2D6", "conditions": "Crespi et al. 1997; cited from earlier work"}, "[4]": {"system": "panel of human P450 enzymes", "assay": "Selectivity in a panel of cDNA-expressed P450 enzymes (dealkylation)", "type": "biochemical", "conditions": "FIGS. 1, 2, and 3", "protocol": "The selectivity of various P450 isoforms for dealkylation of compounds Ia, Ib and Ic was examined using a panel of commercially available human cDNA-expressed enzymes. A substrate that is selective for a single P450 isoform (substrate is catalytically turned over by a single P450 isoform) is a desirable trait in that its activity may be examined within a heterogeneous mixture of enzymes, for example, in human liver microsomes.\nExample Compounds Ia, Ib and Ic. Compounds Ia, Ib and Ic were incubated as described in the examples (1) above except that the enzyme source consisted of one each of several different commercially available, baculovirus/insect cell expressed human cytochrome P450 enzymes (SUPERSOME®, GENTEST Corporation)."}, "CYP2D6 [5]": {"target": "T1, CYP2D6", "assay": "Enzyme kinetics with cDNA-expressed CYP2D6 (fluorometric)", "type": "biochemical", "set-up": "purchased GENTEST Corporation P217; host or cells: baculovirus/insect cell (SUPERSOMES)", "protocol": "(§1) The evaluation of compounds of Formula I were initially performed by measuring the kinetics of turnover using cDNA-expressed CYP2D6. Vmax and Km values are important for the optimization of the assay conditions and for setting the parameters for inhibition experiments. […] However, compounds Ib and Ic, contain the 4-trifluoromethyl group (R4) which shifts the fluorescent properties of these molecules to longer wavelengths.\n(§2) Example Compound Ia. […] The substrate, compound Ia, was prepared in pH 7.4 potassium phosphate buffer (0.1 M). […] The final cofactor concentrations were 0.0082 mM NADP, 0.41 mM glucose-6-phosphate and 0.2 U/ml glucose-6-phosphate dehydrogenase. Final incubation volume was 0.2 ml. […] The activity was quantified by comparing to a standard curve of 3-[2-(N,N-diethylamino)ethyl]-7-hydroxy-4-methylcoumarin hydrochloride. Apparent Km and Vmax values were calculated by non-linear kinetics using SigmaPlot 4.0 software.\n(§3) Example Compounds Ib and Ic. The following procedure applies to compounds Ib and Ic as substrates. […] The substrates, Ib and Ic, were prepared in acetonitrile. […] Final incubation volume was 0.2 ml. […] The enzyme activity was quantified by comparing to a standard curve of 3-[2-(N, N-diethyl-N-methylammonium)ethyl]-7-hydroxy-4-trifluoromethylcoumarin iodide (compound IIb) when assaying for metabolism of Ib or 3-[2-(diethylamino)ethyl]-7-hydroxy-4-trifluoromethyl coumarin (compound IIc) when assaying for metabolism of Ic. Apparent Km and Vmax values were calculated by non-linear kinetics using SigmaPlot 4.0 software."}, "CYP2D6 [6]": {"target": "T1, CYP2D6", "assay": "CYP2D6 specificity in human liver microsomes with and without quinidine", "type": "biochemical", "set-up": "purchased GENTEST Corporation P217; host or cells: baculovirus/insect cell (SUPERSOMES)", "conditions": "for pmole Product with quinidine: 5 uM quinidine; for pmole Product with quinidine / pmole Product: 5.0 uM compound I, 1.0 mg/ml HLM; for pmole Product: without quinidine", "protocol": "Human liver microsomes (HLM) contain several drug (xenobiotic) metabolizing cytochromes P450. When HLM are used as an enzyme source, it is critical that the probe biotransformation be specifically catalyzed by the enzyme of interest.\nAfter incubation, 100 ul of the reaction was added to 1.9 ml of 100 mM Tris (pH 9) and the fluorescence was determined with excitation at 390 nm and emission at 460 nm in a spectrofluorometer. The activity was quantitated by comparing to a standard curve of 3-[2-(diethylamino)ethyl]-7-hydroxy-4-methylcoumarin hydrochloride (Table III): […]"}, "CYP2D6 [7]": {"system": "CYP2D6", "conditions": "Kupfer et al. 1984; cited from earlier work"}, "[8]": {"substrate": "CCN(CC)CCc1c(C(F)(F)F)c2ccc(OC)cc2oc1=O", "assay": "Enzyme kinetics with cDNA-expressed CYP2D6 (fluorometric)", "type": "biochemical", "conditions": "cDNA-expressed human CYP2D6, 37° C., pH 7.4", "protocol": "as §1, §2, §3"}, "[9]": {"substrate": "CC[N+](C)(CC)CCc1c(C(F)(F)F)c2ccc(OC)cc2oc1=O", "assay": "Enzyme kinetics with cDNA-expressed CYP2D6 (fluorometric)", "type": "biochemical", "conditions": "cDNA-expressed human CYP2D6, 37° C., pH 7.4", "protocol": "as §1, §2, §3"}, "[10]": {"substrate": "CC[N+](C)(CC)CCc1c(C)c2ccc(OC)cc2oc1=O", "assay": "Enzyme kinetics with cDNA-expressed CYP2D6 (fluorometric)", "type": "biochemical", "conditions": "cDNA-expressed human CYP2D6, 37° C., pH 7.4", "protocol": "as §1, §2, §3"}, "[11]": {"substrate": "CCOc1ccc2cc(C#N)c(=O)oc2c1", "assay": "Enzyme kinetics with cDNA-expressed CYP2D6 (fluorometric)", "type": "biochemical", "conditions": "cDNA-expressed human CYP2D6, 37° C., pH 7.4"}}, "note": "Several values for one entry are separate records, joined by “and”; a condition that tells them apart may be missing. Equal entries are not always repeated."}
{"molecule": "CCc1cccc2cc(C(O)CNC(C)(C)C)oc12", "note": "(centres unmarked) [Bufuralol]", "values": [{"measurement": "IC50", "setting": "CYP2D6 [1]", "value": "27 µM and 17 µM and 23.3 µM and 104 µM"}]}
{"molecule": "CCOc1ccc2cc(C#N)c(=O)oc2c1", "note": "[CEC, 3-cyano-7-ethoxycoumarin]", "values": [{"measurement": "metabolism by other human cytochromes P450", "setting": "[2]", "value": "significantly metabolized by other human cytochromes P450"}, {"measurement": "specificity of substrate", "setting": "[2]", "value": "poor specificity"}, {"measurement": "enzymatic turnover", "setting": "CYP2D6 [3]", "value": "low enzymatic turnover"}]}
{"molecule": "CC[N+](C)(CC)CCc1c(C)c2ccc(OC)cc2oc1=O", "note": "[Compound Ia, 3-[2-(N,N-diethyl-N-methylammonium)ethyl]-7-methoxy-4-methylcoumarin]", "values": [{"measurement": "catalytic selectivity for dealkylation", "setting": "[4]", "value": "selective for CYP2D6"}, {"measurement": "catalytic turnover", "setting": "CYP2D6 [5]", "value": "highest catalytic turnover"}, {"measurement": "pmole Product with quinidine", "setting": "CYP2D6 [6]; 0 min", "value": 0, "unit": "pmol"}, {"measurement": "pmole Product", "setting": "CYP2D6 [6]; 0 min", "value": 0, "unit": "pmol"}, {"measurement": "pmole Product with quinidine", "setting": "CYP2D6 [6]; 5 min", "value": 0, "unit": "pmol"}, {"measurement": "pmole Product", "setting": "CYP2D6 [6]; 5 min", "value": 3.3, "unit": "pmol"}, {"measurement": "pmole Product with quinidine", "setting": "CYP2D6 [6]; 10 min", "value": 0, "unit": "pmol"}, {"measurement": "pmole Product", "setting": "CYP2D6 [6]; 10 min", "value": 6.3, "unit": "pmol"}, {"measurement": "pmole Product with quinidine", "setting": "CYP2D6 [6]; 15 min", "value": -0.7, "unit": "pmol"}, {"measurement": "pmole Product", "setting": "CYP2D6 [6]; 15 min", "value": 8.5, "unit": "pmol"}, {"measurement": "measurable metabolism / CYP2D6 specificity", "setting": "CYP2D6 [6]; human liver microsomes, quinidine inhibition", "value": "exclusively due to CYP2D6"}]}
{"molecule": "CC[N+](C)(CC)CCc1c(C(F)(F)F)c2ccc(OC)cc2oc1=O", "note": "[Compound Ib, 3-[2-(N,N-diethyl-N-methylammonium)ethyl]-7-methoxy-4-trifluoromethylcoumarin iodide]", "values": [{"measurement": "catalytic selectivity for dealkylation", "setting": "[4]", "value": "also substrates for other human P450 enzymes"}, {"measurement": "catalytic turnover", "setting": "CYP2D6 [5]", "value": "lower catalytic turnover compared to compound Ia"}]}
{"molecule": "CCN(CC)CCc1c(C(F)(F)F)c2ccc(OC)cc2oc1=O", "note": "[Compound Ic, 3-[2-(diethylamino)ethyl]-7-methoxy-4-trifluoromethylcoumarin]", "values": [{"measurement": "catalytic selectivity for dealkylation", "setting": "[4]", "value": "also substrates for other human P450 enzymes"}, {"measurement": "catalytic turnover", "setting": "CYP2D6 [5]", "value": "lower catalytic turnover compared to compound Ia"}]}
{"molecule": "N=C(N)N1CCc2ccccc2C1", "note": "[Debrisoquine]", "values": [{"measurement": "IC50", "setting": "CYP2D6 [1]", "value": "29 µM and 20 µM and 10.6 µM and 105 µM"}]}
{"molecule": "COc1ccc2c(c1)[C@]13CCCC[C@@H]1[C@H](C2)N(C)CC3", "note": "[Dextromethorphan]", "values": [{"measurement": "metabolism by CYP2D6", "setting": "CYP2D6 [7]", "value": "O-demethylated by CYP2D6"}]}
{"molecule": "NCCC(Oc1ccc(C(F)(F)F)cc1)c1ccccc1", "note": "(centres unmarked) [Norfluoxetine]", "values": [{"measurement": "IC50", "setting": "CYP2D6 [1]", "value": "8.4 µM and 1.1 µM"}]}
{"molecule": "B1", "values": [{"measurement": "kcat", "setting": "[8]", "value": 0.0033, "unit": "s⁻¹"}, {"measurement": "Km", "setting": "[8]; other: apparent Km", "value": 3.3, "unit": "µM"}, {"measurement": "kcat", "setting": "[9]", "value": 0.00267, "unit": "s⁻¹"}, {"measurement": "Km", "setting": "[9]; other: apparent Km", "value": 0.8, "unit": "µM"}, {"measurement": "kcat", "setting": "[10]", "value": 0.0167, "unit": "s⁻¹"}, {"measurement": "kcat", "setting": "[11]", "value": 0.000283, "unit": "s⁻¹"}, {"measurement": "Km", "setting": "[11]; other: apparent Km", "value": 67, "unit": "µM"}]}
